Laboratory results: patent publication US10577332B2, “Tetrazole derivatives” (Hoffmann-La Roche Inc., priority 2015, dated 2020)

Tests used:
human EAAT3 = biological target: T1, human EAAT3 (Homo sapiens, UniProt P43005); assay: FLIPR Membrane Potential (FMP) assay; format: cell-based; conditions: HEK-293 cells stably expressing human EAAT3; antagonist applied 15 min before L-glutamate at EC80; Kb by Cheng-Prusoff from IC50
T1 construct: expressed in transfected cells
T1 sequence (P43005 1-524): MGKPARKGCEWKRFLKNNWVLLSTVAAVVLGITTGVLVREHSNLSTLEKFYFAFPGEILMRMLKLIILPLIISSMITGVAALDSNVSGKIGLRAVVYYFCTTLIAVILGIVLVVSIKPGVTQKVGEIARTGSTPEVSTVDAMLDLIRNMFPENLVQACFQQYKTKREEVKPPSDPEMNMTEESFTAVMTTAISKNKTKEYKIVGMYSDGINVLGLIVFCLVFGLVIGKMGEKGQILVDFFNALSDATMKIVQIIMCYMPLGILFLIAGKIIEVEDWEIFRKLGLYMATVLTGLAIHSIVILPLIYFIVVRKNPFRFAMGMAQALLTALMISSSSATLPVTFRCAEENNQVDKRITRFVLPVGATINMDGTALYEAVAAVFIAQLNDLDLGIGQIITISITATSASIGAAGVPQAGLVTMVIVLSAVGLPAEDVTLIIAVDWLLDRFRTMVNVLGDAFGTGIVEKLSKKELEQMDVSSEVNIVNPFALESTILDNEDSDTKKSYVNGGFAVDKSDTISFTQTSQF
Experimental: The FLIPR Membrane Potential (FMP) Assay
HEK-293 cells stably expressing human EAAT3 were seeded at 55 000 cells/well in growth medium (DMEM glutamate free (Invitrogen 11960-044), 1% Pen Strep (10 ml/l GIBCO BRL No 15140-023), 10% FCS non dialysed heat inactivated, 5 mg/l puromycin) in poly-D-lysine treated 96-well black microtiter plates with clear-bottom. After 24 h, the growth medium was removed and 100 μl/well of Krebs buffer (140 mM NaCl, 4.7 mM KCl, 2.5 mM CaCl2, 1.2 mM MgCl2, 11 mM HEPES, 10 mM D-glucose, pH=7.4) added. The cells were then loaded by adding 100 μl/well FMP assay dye (FLIPR Membrane Potential assay reagent, Molecular Devices). The 96-well plates were then incubated at 37° C. for 1 h. The depolarization of the cells will cause more dye to enter in the cells, where it will bind to intracellular proteins and lipids and cause an increase in the fluorescence signal. Antagonist potency at human EAAT3 was determined by using L-glutamate as agonist at a concentration which gives 80% of the maximum response. The antagonists were applied 15 min before the application of the agonist L-glutamate. The assays were performed at room temperature and measurements done by using a Fluorometric Imaging Plate Reader (FLIPR, Molecular Devices) and filter #2. Responses were measured as peak increase in fluorescence minus basal (i.e. fluorescence without addition of L-glutamate). Kb was determined using the Cheng-Prusoff equation Kb=IC50/[1+(A/EC50)], where IC50 is the concentration of the antagonist producing 50% inhibition, A is the concentration of the agonist against which the IC50 is being determined (at EC80) and EC50 is the concentration of the agonist producing 50% […].

Row | Compound | Kb (human EAAT3) | melting point
1 | CCC(C)(C)NC(=O)c1cc(-c2ccc(F)cc2)cc(-n2nnnc2C(C)(C)C)c1 [Example 97, 3-(5-tert-Butyltetrazol-1-yl)-5-(4-fluorophenyl)-N-(2-methylbutan-2-yl)-benzamide] | 120 nM | 199 °C
2 | CC(C)c1nnnn1-c1cc(C(=O)NC(C)(C)C#N)cc(-c2ccc(Cl)cc2)c1 [Example 101, 3-(4-Chlorophenyl)-N-(2-cyanopropan-2-yl)-5-(5-propan-2-yltetrazol-1-yl)-benzamide] | 205 nM | 107 °C
3 | CC(C)(NC(=O)c1cc(-c2ccc(Cl)cc2)cc(-n2nnnc2C(F)(F)F)c1)C(F)(F)F [Example 79, 3-(4-Chlorophenyl)-N-(1,1,1-trifluoro-2-methylpropan-2-yl)-5-[5-(trifluoromethyl)tetrazol-1-yl]-benzamide] | 200 nM | 166.5 °C
4 | CC(C)(NC(=O)c1cc(-c2ccc(Cl)cc2)cc(-n2cnnn2)c1)C1CC1 [Example 31, 3-(4-Chlorophenyl)-N-(2-cyclopropylpropan-2-yl)-5-(tetrazol-1-yl)-benzamide] | 210 nM | 191 °C
5 | CCC(C)(C)NC(=O)c1cc(-c2ccc(Cl)cc2)cc(-n2nnnc2C)c1 [Example 66, 3-(4-Chlorophenyl)-N-(2-methylbutan-2-yl)-5-(5-methyltetrazol-1-yl)-benzamide] | 170 nM | 80.5 °C
6 | CC(C)(C)c1nnnn1-c1cc(C(=O)NC(C)(C)C(F)(F)F)cc(-c2ccc(F)c(F)c2)c1 [Example 122, 3-(5-tert-Butyltetrazol-1-yl)-5-(3,4-difluorophenyl)-N-(1,1,1-trifluoro-2-methylpropan-2-yl)-benzamide] | 360 nM | 221.5 °C
7 | Cc1nnnn1-c1cc(C(=O)NC(C)(C)C)cc(-c2ccc(Cl)cc2)c1 [Example 67, N-tert-Butyl-3-(4-chlorophenyl)-5-(5-methyltetrazol-1-yl)-benzamide] | 240 nM | 98 °C
8 | CC(C)(C)c1nnnn1-c1cc(C(=O)NC(C)(C)C2CC2)cc(-c2ccc(F)cc2)c1 [Example 99, 3-(5-tert-Butyltetrazol-1-yl)-N-(2-cyclopropylpropan-2-yl)-5-(4-fluorophenyl)-benzamide] | 200 nM | 201 °C
9 | CC(C)(C)NC(=O)c1cc(-c2ccc(Cl)cc2)cc(-n2nnnc2C(F)(F)F)c1 [Example 75, N-tert-Butyl-3-(4-chlorophenyl)-5-[5-(trifluoromethyl)-tetrazol-1-yl]-benzamide] | 110 nM | 186 °C
10 | Cc1ccc(-c2cc(C(=O)NC(C)(C)C)cc(-n3nnnc3C(C)(C)C)c2)cc1 [Example 102, N-tert-Butyl-3-(5-tert-butyltetrazol-1-yl)-5-(4-methylphenyl)-benzamide] | 120 nM | 222 °C
11 | CC(C)c1nnnn1-c1cc(C(=O)NC(C)(C)C2CC2)cc(-c2ccc(Cl)cc2)c1 [Example 44, 3-(4-Chlorophenyl)-N-(2-cyclopropylpropan-2-yl)-5-(5-propan-2-yltetrazol-1-yl)-benzamide] | 210 nM | 83 °C
12 | CC1(NC(=O)c2cc(-c3ccc(Cl)cc3)cc(-n3nnnc3C3CC3)c2)CCS(=O)(=O)C1 (racemic) [Example 57, (RS)-3-(4-Chlorophenyl)-5-(5-cyclopropyltetrazol-1-yl)-N-(3-methyl-1,1-dioxothiolan-3-yl)-benzamide] | 350 nM | 126 °C
13 | CC(C)(C)c1nnnn1-c1cc(C(=O)NC(C)(C)C(F)(F)F)cc(-c2ccc(F)cc2)c1 [Example 96, 3-(5-tert-Butyltetrazol-1-yl)-5-(4-fluorophenyl)-N-(1,1,1-trifluoro-2-methylpropan-2-yl)-benzamide] | 260 nM | 224.5 °C
